System: patients after acute myocardial infarction
Test: Life quality, Seattle Angina Questionnaire (SAQ), same clinical trial
Type: in vivo, human
Settings: FAS
Excerpt: 3508 patients who were in accordance with the diagnostic standards of AMI for 28 days to 2 years and differentiated as Qi deficiency and blood stagnation syndrome by TCM were studied. 0.5 g Chinese medicine composition prepared by the method of EXAMPLE 1 (Coded as QSYQ) was administrated half an hour after meal, 3 times per day.
There were 19 questions in the Seattle angina questionnaire (SAQ), including 5 parts: physical limitation (PL), anginal stability (AS), anginal frequency (AF), treatment satisfaction (TS) and disease perception (DP). After being given necessary explanation by doctors, the questions were answered independently by patients.
They included the overall survival time, angina pectoris score, TCM symptom score and life quality score, where angina pectoris score, TCM symptom score and life quality score were evaluated at randomization, in 1st, 3rd, 6th, 9th, 12th month after treatment and 18th month after follow-up.
All evaluation results of SAQ were described during the period of observation, and Wilcoxon rank sum test was used for inter-group comparison.
The evaluation results in the SAQ were depicted in different observations, and inter-group comparison was tested by Wilcoxon Rank-sum test.

CC(=O)Oc1ccccc1C(=O)O [Control group, aspirine]
SAQ Question 1-1 Other reasons, percent of patients (9 months after treatment): (0.17%)
SAQ Question 1-1 Severely limited, number of patients (9 months after treatment): 1
SAQ Question 1-1 Severely limited, percent of patients (9 months after treatment): (0.06%)
SAQ Question 1-1 Slightly limited, number of patients (9 months after treatment): 67
SAQ Question 1-1 Slightly limited, percent of patients (9 months after treatment): (3.84%)
SAQ Question 1-2 Mildly limited, number of patients (9 months after treatment): 29
SAQ Question 1-2 Mildly limited, percent of patients (9 months after treatment): (1.66%)
SAQ Question 1-2 Moderately limited, number of patients (9 months after treatment): 7
SAQ Question 1-2 Moderately limited, percent of patients (9 months after treatment): (0.40%)
SAQ Question 1-2 Not limited, number of patients (9 months after treatment): 1631
SAQ Question 1-2 Not limited, percent of patients (9 months after treatment): (93.52%)
SAQ Question 1-2 Other reasons, number of patients (9 months after treatment): 5
SAQ Question 1-2 Other reasons, percent of patients (9 months after treatment): (0.29%)
SAQ Question 1-2 Severely limited, number of patients (9 months after treatment): 0
SAQ Question 1-2 Severely limited, percent of patients (9 months after treatment): (0.00%)
SAQ Question 1-2 Slightly limited, number of patients (9 months after treatment): 72
SAQ Question 1-2 Slightly limited, percent of patients (9 months after treatment): (4.13%)
SAQ Question 1-6: Mildly limited, patients (%) (9 months after treatment): (15.79%)
SAQ Question 1-6: Moderately limited, patients (%) (9 months after treatment): (11.08%)
SAQ Question 1-6: Not limited, patients (%) (9 months after treatment): (37.31%)
SAQ Question 1-6: Other reasons, patients (%) (9 months after treatment): (0.86%)
SAQ Question 1-6: Severely limited, patients (%) (9 months after treatment): (2.93%)
SAQ Question 1-6: Slightly limited, patients (%) (9 months after treatment): (32.03%)
SAQ Question 1-7: Mildly limited, patients (%) (9 months after treatment): (21.69%)
SAQ Question 1-7: Moderately limited, patients (%) (9 months after treatment): (11.86%)
SAQ Question 1-7: Not limited, patients (%) (9 months after treatment): (17.87%)
SAQ Question 1-7: Other reasons, patients (%) (9 months after treatment): (3.07%)
SAQ Question 1-7: Severely limited, patients (%) (9 months after treatment): (14.29%)
SAQ Question 1-7: Slightly limited, patients (%) (9 months after treatment): (31.23%)
SAQ Question 1-8: Mildly limited, patients (%) (9 months after treatment): (24.55%)
SAQ Question 1-8: Moderately limited, patients (%) (9 months after treatment): (15.03%)
SAQ Question 1-8: Not limited, patients (%) (9 months after treatment): (11.96%)
SAQ Question 1-8: Other limited, patients (%) (9 months after treatment): (3.60%)
SAQ Question 1-8: Severely limited, patients (%) (9 months after treatment): (17.93%)
SAQ Question 1-8: Slightly limited, patients (%) (9 months after treatment): (26.93%)
8th question: Dissatisfied, patients (%) (12 months after treatment): (0.29%)
8th question: Highly satisfied, patients (%) (12 months after treatment): (25.29%)
8th question: Mostly dissatisfied, patients (%) (12 months after treatment): (2.01%)
8th question: Mostly satisfied, patients (%) (12 months after treatment): (60.09%)
8th question: Partly satisfied, patients (%) (12 months after treatment): (12.33%)
9th question: Few, patients (%) (12 months after treatment): (39.74%)
9th question: Mild, patients (%) (12 months after treatment): (30.56%)
9th question: Moderate, patients (%) (12 months after treatment): (6.82%)
9th question: Severe, patients (%) (12 months after treatment): (0.97%)
9th question: Uneffective, patients (%) (12 months after treatment): (21.90%)
10th question: Dissatisfied, patients (%) (12 months after treatment): (19.50%)
10th question: Highly satisfied, patients (%) (12 months after treatment): (7.57%)
10th question: Mostly dissatisfied, patients (%) (12 months after treatment): (19.21%)
10th question: Mostly satisfied, patients (%) (12 months after treatment): (30.85%)
10th question: Partly dissatisfied, patients (%) (12 months after treatment): (22.88%)
11th question: Continuously worried, patients (%) (12 months after treatment): (3.15%)
11th question: No worried, patients (%) (12 months after treatment): (7.11%)
11th question: Occasionally worried, patients (%) (12 months after treatment): (40.60%)
11th question: Often worried, patients (%) (12 months after treatment): (9.23%)
11th question: Seldom worried, patients (%) (12 months after treatment): (39.91%)
SAQ 4th question, 1-2 times per week: % of patients (12 months after treatment): (10.61%)
SAQ 4th question, 1-2 times per week: number of patients (12 months after treatment): 185
SAQ 4th question, 1-3 times per week: % of patients (12 months after treatment): (4.24%)
SAQ 4th question, 1-3 times per week: number of patients (12 months after treatment): 74
SAQ 4th question, <1 time per week: % of patients (12 months after treatment): (16.51%)
SAQ 4th question, <1 time per week: number of patients (12 months after treatment): 288
SAQ 4th question, Not used: % of patients (12 months after treatment): (64.56%)
SAQ 4th question, Not used: number of patients (12 months after treatment): 1126
SAQ 4th question, ≧3 times per week: % of patients (12 months after treatment): (3.96%)
SAQ 4th question, ≧3 times per week: number of patients (12 months after treatment): 69
SAQ 4th question, ≧4 times per day: % of patients (12 months after treatment): (0.11%)
SAQ 4th question, ≧4 times per day: number of patients (12 months after treatment): 2
SAQ 5th question, 1-2 times per week: % of patients (12 months after treatment): (32.00%)
SAQ 5th question, 1-2 times per week: number of patients (12 months after treatment): 558
SAQ 5th question, 1-3 times per day: % of patients (12 months after treatment): (6.14%)
SAQ 5th question, 1-3 times per day: number of patients (12 months after treatment): 107
SAQ 5th question, <1 time per week: % of patients (12 months after treatment): (29.93%)
SAQ 5th question, <1 time per week: number of patients (12 months after treatment): 522
SAQ 5th question, No onset: % of patients (12 months after treatment): (5.28%)
SAQ 5th question, No onset: number of patients (12 months after treatment): 92
SAQ 5th question, ≧3 times per week: % of patients (12 months after treatment): (25.86%)
SAQ 5th question, ≧3 times per week: number of patients (12 months after treatment): 451
SAQ 5th question, ≧4 times per day: % of patients (12 months after treatment): (0.80%)
SAQ 5th question, ≧4 times per day: number of patients (12 months after treatment): 14
SAQ 6th question, Dissatisfied: % of patients (12 months after treatment): (0.29%)
SAQ 6th question, Dissatisfied: number of patients (12 months after treatment): 5
SAQ 6th question, Highly satisfied: % of patients (12 months after treatment): (25.86%)
SAQ 6th question, Highly satisfied: number of patients (12 months after treatment): 451
SAQ 6th question, Mostly dissatisfied: % of patients (12 months after treatment): (1.55%)
SAQ 6th question, Mostly dissatisfied: number of patients (12 months after treatment): 27
SAQ 6th question, Mostly satisfied: % of patients (12 months after treatment): (60.61%)
SAQ 6th question, Mostly satisfied: number of patients (12 months after treatment): 1057
SAQ 6th question, Partly satisfied: % of patients (12 months after treatment): (11.70%)
SAQ 6th question, Partly satisfied: number of patients (12 months after treatment): 204
SAQ 7th question, Dissatisfied: % of patients (12 months after treatment): (0.11%)
SAQ 7th question, Dissatisfied: number of patients (12 months after treatment): 2
SAQ 7th question, Highly satisfied: % of patients (12 months after treatment): (29.56%)
SAQ 7th question, Highly satisfied: number of patients (12 months after treatment): 515
SAQ 7th question, Mostly dissatisfied: % of patients (12 months after treatment): (0.75%)
SAQ 7th question, Mostly dissatisfied: number of patients (12 months after treatment): 13
SAQ 7th question, Mostly satisfied: % of patients (12 months after treatment): (59.82%)
SAQ 7th question, Mostly satisfied: number of patients (12 months after treatment): 1042
SAQ 7th question, Partly satisfied: % of patients (12 months after treatment): (9.76%)
SAQ 7th question, Partly satisfied: number of patients (12 months after treatment): 170
SAQ Question 1-1 Mildly limited, number of patients (12 months after treatment): 15
SAQ Question 1-1 Mildly limited, percent of patients (12 months after treatment): (0.86%)
SAQ Question 1-1 Moderately limited, number of patients (12 months after treatment): 4
SAQ Question 1-1 Moderately limited, percent of patients (12 months after treatment): (0.23%)
SAQ Question 1-1 Not limited, number of patients (12 months after treatment): 1659
SAQ Question 1-1 Not limited, percent of patients (12 months after treatment): (95.13%)
SAQ Question 1-1 Other reasons, number of patients (12 months after treatment): 4
SAQ Question 1-1 Other reasons, percent of patients (12 months after treatment): (0.23%)
SAQ Question 1-1 Severely limited, number of patients (12 months after treatment): 1
SAQ Question 1-1 Severely limited, percent of patients (12 months after treatment): (0.06%)
SAQ Question 1-1 Slightly limited, number of patients (12 months after treatment): 61
SAQ Question 1-1 Slightly limited, percent of patients (12 months after treatment): (3.50%)
SAQ Question 1-2 Mildly limited, number of patients (12 months after treatment): 18
SAQ Question 1-2 Mildly limited, percent of patients (12 months after treatment): (1.03%)
SAQ Question 1-2 Moderately limited, number of patients (12 months after treatment): 6
SAQ Question 1-2 Moderately limited, percent of patients (12 months after treatment): (0.34%)
SAQ Question 1-2 Not limited, number of patients (12 months after treatment): 1647
SAQ Question 1-2 Not limited, percent of patients (12 months after treatment): (94.44%)
SAQ Question 1-2 Other reasons, number of patients (12 months after treatment): 6
SAQ Question 1-2 Other reasons, percent of patients (12 months after treatment): (0.34%)
SAQ Question 1-2 Severely limited, number of patients (12 months after treatment): 0
SAQ Question 1-2 Severely limited, percent of patients (12 months after treatment): (0.00%)
SAQ Question 1-2 Slightly limited, number of patients (12 months after treatment): 67
SAQ Question 1-2 Slightly limited, percent of patients (12 months after treatment): (3.84%)
SAQ Question 1-6: Mildly limited, patients (%) (12 months after treatment): (14.93%)
SAQ Question 1-6: Moderately limited, patients (%) (12 months after treatment): (9.70%)
SAQ Question 1-6: Not limited, patients (%) (12 months after treatment): (40.47%)
SAQ Question 1-6: Other reasons, patients (%) (12 months after treatment): (0.86%)
SAQ Question 1-6: Severely limited, patients (%) (12 months after treatment): (2.58%)
SAQ Question 1-6: Slightly limited, patients (%) (12 months after treatment): (31.46%)
SAQ Question 1-7: Mildly limited, patients (%) (12 months after treatment): (20.46%)
SAQ Question 1-7: Moderately limited, patients (%) (12 months after treatment): (11.10%)
SAQ Question 1-7: Not limited, patients (%) (12 months after treatment): (20.46%)
SAQ Question 1-7: Other limited, patients (%) (12 months after treatment): (3.29%)
SAQ Question 1-7: Severely limited, patients (%) (12 months after treatment): (12.95%)
SAQ Question 1-7: Slightly limited, patients (%) (12 months after treatment): (31.73%)
SAQ Question 1-8: Mildly limited, patients (%) (12 months after treatment): (24.72%)
SAQ Question 1-8: Moderately limited, patients (%) (12 months after treatment): (13.35%)
SAQ Question 1-8: Not limited, patients (%) (12 months after treatment): (13.64%)
SAQ Question 1-8: Other reasons, patients (%) (12 months after treatment): (3.95%)
SAQ Question 1-8: Severely limited, patients (%) (12 months after treatment): (16.89%)
SAQ Question 1-8: Slightly limited, patients (%) (12 months after treatment): (27.45%)
8th question: Dissatisfied, patients (%) (Baseline): (0.92%)
8th question: Highly satisfied, patients (%) (Baseline): (15.62%)
8th question: Mostly dissatisfied, patients (%) (Baseline): (6.55%)
8th question: Mostly satisfied, patients (%) (Baseline): (46.01%)
8th question: Partly satisfied, patients (%) (Baseline): (30.90%)
9th question: Few, patients (%) (Baseline): (21.02%)
9th question: Mild, patients (%) (Baseline): (36.70%)
9th question: Moderate, patients (%) (Baseline): (26.88%)
9th question: Severe, patients (%) (Baseline): (3.62%)
9th question: Uneffective, patients (%) (Baseline): (11.77%)
10th question: Dissatisfied, patients (%) (Baseline): (25.90%)
10th question: Highly satisfied, patients (%) (Baseline): (2.30%)
10th question: Mostly dissatisfied, patients (%) (Baseline): (23.72%)

— patent US9211310B2, “Use of a Chinese medicine composition in preparing medicaments for treating secondary prevention of myocardial infarction” (TASLY PHARMACEUTICAL GROUP CO., LTD, priority 2010, dated 2015)
